The subject of one assay is Par-4. The experiment in a line: Immunoblotting, expression of Par-4. Format: cell-based, human. The procedure:
Immunoblotting. MDA-MB-231 and MCF7 cells (0.5×10^6) were plated in six well plates for overnight in a humidified CO2 incubator and then exposed to varying concentrations of 5 (50, 100 and 200 nM) for 24 h along with vehicle (dose dependent study) and 200 nM of 5 for various time points like; 0, 6, 12, 24 and 48 h (time dependent study). Cells were then harvested, washed with chilled PBS and lysed with lysis buffer (HEPES 1 mM, KCl 60 mM, NP-40 0.3%, EDTA 1 mM, DTT 1 mM, sodium orthovanadate 1 mM, PMSF 0.1 mM and cocktail protease inhibitor). The cell extractions were centrifuged at 12,000 rpm for 10 min at 4° C. Protein concentration was measured by the standard Bradford method. […] Immunoreactive proteins were detected by Enhanced Chemiluminescence Plus (Thermo) (Rah et al., 2012, PloS one, 7(9), p.e44039.).
Drug Potentiation Assay. […] The ability of 5 to enhance cell killing was expressed as potentiation index (PI), which was the ratio of the % inhibition of 5 alone at the given dose and the % inhibition in combination with doxorubicin. […]
In general terms: Immunoblotting shows a protein as a band on a membrane.

Another assay concerns MCF7 cells. Kind of assay: Matrigel invasion assay. Format: cell-based. The following applies: Homo sapiens, 200 nM, 24 h, vs vehicle. As for the experimental part: (§1) Matrigel Invasion Assay. The effect of compound 5 on invasion capability of breast cancer cells was evaluated using BD Biocoat Tumor Invasion Assay System (BD Bioscience, Bedford, Mass.) according to the manufacturer's instruction. Briefly, MDA-MB-231 and MCF7 cells (1×10^6) cells were cultured in the presence of 200 nM of compound 5, along with doxorubicin and vehicle for 24 h in serum free media in the upper chambers/inserts, and the bottom wells were filled with chemo-attractant (complete media with 10% FBS). Cells were allowed to migrate at 37° C. and 5% CO2. After 24 h, the matrigel-coated polycarbonate filters were removed, the non-migrating cells were separated from the upper chamber with a cotton swab and the inserts were fixed with methanol and stained with 0.25% crystal violet solution. For each replicate (n=3), migration of the cells was quantified by counting the stained cells (cells per five random fields) under an inverted microscope (Amin et al., 2015, Mol. Carcinog).

Another assay relates to MDA-MB-231 cells. The experiment in a line: Matrigel invasion assay. Format: cell-based. The following applies: Homo sapiens, 200 nM, 24 h, vs vehicle. The procedure: as §1
The test system of assay [1] is mouse mammary carcinoma (4T1) cells. In kind it is in vivo. The procedure:
In Vivo Anti-Tumor and Anti-Metastatic Efficacy Studies. To evaluate the antitumor and antimetastatic effect of 5 in vivo, healthy female Balb/c mice (b.w. 18-23 g) were taken. The experimental protocols were approved by the Institutional Animal Ethics Committee, CPCSEA, of Indian Institute of Integrative Medicine, Jammu. The animals were maintained at 22° C. with a 12 h light-dark cycle and free access to feed and water inside the institutional animal house. Proper care was taken to maintain them in a healthy condition and to avoid any risk of possible pathogenic contaminations. For subcutaneous implantation, the mice were randomized into two groups of 5 mice per group and 1.5 million mouse mammary carcinoma (4T1) cells in serum free RPMI media were injected subcutaneously into the mammary fat pad of each mouse. Either 1 week after the tumor cell implantation or when the tumor volume reached ˜150 mm^3, mice were injected intraperitoneally with either normal saline (NS) or parent compound 1 (100 mg/kg, b.w.) or 5 (30 mg/kg, b.w.) in each alternate days for two weeks. Tumor size was recorded on each alternate days post-cell injection and body weights were recorded once per week. Mice were sacrificed on the 15th day of treatment initiation and tumors were incised for its measurement. Metastatic lung nodules were counted using a dissecting microscope. Lungs were then minced into fine pieces, suspended in medium containing collagenase and kept in 37° C. incubator with vigorous shaking for 2 h. The suspension was then filtered with the help of 70 μm cell strainer (BD, USA) to get the single cell suspension. Then, the suspension was serially diluted for 3-4 times in selection medium containing 6-thioguanine, for the selection of 4T1 cells. Each dilution containing the lung cell suspension was then plated into individual petridishes and incubated at 37° C. and 5% CO2 for the growing of 4T1 cell colonies. After 15 days of incubation, cells were washed with PBS, fixed with methanol and stained with 0.2% crystal violet solution for 1 h. Images of the 4T1 colonies were observed, counted and photographed under an inverted microscope at 20× magnification.

Several values for one entry are separate records, joined by “and”; a condition that tells them apart may be missing. Identical values can stand only once.

Regarding `CCCCCCCC(c1oc(CO)cc(=O)c1O)c1c[nH]c2ccccc12` (stereo not shown) [Compound 5, 2-{1-(1H-indol-3-yl)octyl}-3-hydroxy-6-(hydroxymethyl)-4H-pyran-4-one], the “increase in the expression of Par-4” value in the assay with Par-4 (MDA-MB-231, 5 and doxorubicin in combination, 24 h, vs each alone, densitometry) was 5.8 fold. For the same molecule, the “expression of Par-4” value in the assay on Par-4 (MDA-MB-231 cells, dose dependent) is “induced significantly”. Moreover, the inhibition at 0.2 µM in the assay on MCF7 cells came to 79%; with MDA-MB-231 cells, 67%. The “decrease in metastatic lung nodules” value in assay [1] (30 mg/kg b.w. i.p., alternate days for two weeks) is listed as 84.5%. The “inhibition in tumor growth” value in assay [1] (30 mg/kg b.w. i.p., alternate days for two weeks, vs normal saline) was 79.2% and 67%. For the same molecule, the “colony formation by 4T1 cells in lung suspension” value in assay [1] (30 mg/kg b.w., compared to 1 and vehicle treated animals) is recorded as “inhibited drastically”.

Usually inhibition stands for the drop in the measured response relative to a control, in per cent. The low end stands for a response near the control, the high end for a response far below the control.

The values are drawn from US11180486B2, “Indolylkojyl methane analogues, process of preparation thereof and use as inhibitor of cancer cells invasion and metastasis” (Council of Scientific & Industrial Research, priority 2017, dated 2021).
